What all share (type): biochemical
For test [1], the target named is T1, MMP13 (Homo sapiens, UniProt P45452).
T1 construct: purchased R&D Systems 511-MM
The test can be described thus: MMP assay (fluorogenic substrate ES010). On the procedure: (§1) MMP-1, MMP-2, MMP-8, MMP-9, MMP-10, MMP-13, MMP-14, ADAM10, ADAM17 and Mca-KPLGL-Dpa-AR-NH2 fluorogenic peptide substrate were purchased from R&D Systems (cat # 901-MP, 902-MP, 908-MP, 911-MP, 910-MP, 511-MM, 918-MP, 936-AD, 930-ADB, and ES010, respectively). All common chemicals were purchased from Sigma. NFF449 was purchased from Tocris (cat# 1391) and actinonin was from Sigma-Aldrich, St. Louis, MO, USA (cat# 01809).
(§2) All assays followed the same general protocol. 5 µL of 2× enzyme solution (5 nM) in assay buffer (50 mM Tricine, 50 mM NaCl, 10 mM CaCl2, 0.05% Brij-35, pH 7.5) were added to solid-bottom black 384 plates (Nunc, cat# 264705). Next, test compounds and pharmacological controls were added to corresponding wells using a 384-pin tool device (V&P Scientific, San Diego). After 30 min incubation at RT, the reactions were started by addition of 5 µL of 2× solutions of MMP substrate (R&D Systems cat#: ES010, 20 µM). Reactions were incubated at RT for 1 h, after which the fluorescence was measured using the Synergy H4 multimode microplate reader (Biotek Instruments) (λexcitation = 324 nm, λemission = 390 nm). All compounds were tested in 10-point, 1:3 serial dilutions dose-response format starting with highest concentration of 100 µM. IC50 values were determined using non-linear regression analysis using the GraphPad Prism 8.0 suite of programs.

For test [2], the target named is T2, MMP14 (Homo sapiens, UniProt P50281).
T2 construct: purchased R&D Systems 918-MP
The experiment in a line: MMP assay (fluorogenic substrate ES010). On the procedure:
as §1, §2

Test [3] addresses T3, MMP2 (Homo sapiens, UniProt P08253).
T3 construct: purchased R&D Systems 902-MP
T3 sequence (P08253 110-660): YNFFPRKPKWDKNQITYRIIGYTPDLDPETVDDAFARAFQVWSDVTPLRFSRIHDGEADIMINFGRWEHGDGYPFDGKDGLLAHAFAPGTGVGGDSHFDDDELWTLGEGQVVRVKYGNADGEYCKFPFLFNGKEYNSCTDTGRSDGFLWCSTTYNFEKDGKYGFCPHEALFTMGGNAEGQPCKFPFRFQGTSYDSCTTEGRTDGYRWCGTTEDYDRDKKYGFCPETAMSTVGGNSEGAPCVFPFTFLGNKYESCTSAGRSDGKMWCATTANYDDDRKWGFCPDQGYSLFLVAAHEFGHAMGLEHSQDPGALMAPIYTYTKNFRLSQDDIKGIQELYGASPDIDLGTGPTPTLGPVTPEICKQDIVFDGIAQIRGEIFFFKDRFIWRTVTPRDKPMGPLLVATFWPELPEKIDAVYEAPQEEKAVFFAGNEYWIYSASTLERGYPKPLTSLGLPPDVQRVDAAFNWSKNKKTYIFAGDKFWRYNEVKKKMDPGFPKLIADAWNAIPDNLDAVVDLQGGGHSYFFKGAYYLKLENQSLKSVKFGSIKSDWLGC
The test can be described thus: MMP assay (fluorogenic substrate ES010). On the procedure: as §1, §2

In test [4] the target is T4, MMP8 (Homo sapiens, UniProt P22894).
T4 construct: purchased R&D Systems 908-MP
The test can be described thus: MMP assay (fluorogenic substrate ES010). On the procedure: as §1, §2

Test [5] deals with T5, MMP9 (Homo sapiens, UniProt P14780).
T5 construct: purchased R&D Systems 911-MP
The test can be described thus: MMP assay (fluorogenic substrate ES010). On the procedure:
as §1, §2

Test [6] has as its target MMP3 (Homo sapiens, UniProt P08254). The experiment in a line: MMP assay (fluorogenic substrate ES010). On the procedure: as §2
The target of test [7] is T6, meprin α (Homo sapiens, UniProt Q16819).
T6 construct: Strep-tag; made in house; host or cells: BTI-TN-5B1-4 insect cells (baculovirus, amplified in Sf9)
T6 sequence (Q16819 66-746): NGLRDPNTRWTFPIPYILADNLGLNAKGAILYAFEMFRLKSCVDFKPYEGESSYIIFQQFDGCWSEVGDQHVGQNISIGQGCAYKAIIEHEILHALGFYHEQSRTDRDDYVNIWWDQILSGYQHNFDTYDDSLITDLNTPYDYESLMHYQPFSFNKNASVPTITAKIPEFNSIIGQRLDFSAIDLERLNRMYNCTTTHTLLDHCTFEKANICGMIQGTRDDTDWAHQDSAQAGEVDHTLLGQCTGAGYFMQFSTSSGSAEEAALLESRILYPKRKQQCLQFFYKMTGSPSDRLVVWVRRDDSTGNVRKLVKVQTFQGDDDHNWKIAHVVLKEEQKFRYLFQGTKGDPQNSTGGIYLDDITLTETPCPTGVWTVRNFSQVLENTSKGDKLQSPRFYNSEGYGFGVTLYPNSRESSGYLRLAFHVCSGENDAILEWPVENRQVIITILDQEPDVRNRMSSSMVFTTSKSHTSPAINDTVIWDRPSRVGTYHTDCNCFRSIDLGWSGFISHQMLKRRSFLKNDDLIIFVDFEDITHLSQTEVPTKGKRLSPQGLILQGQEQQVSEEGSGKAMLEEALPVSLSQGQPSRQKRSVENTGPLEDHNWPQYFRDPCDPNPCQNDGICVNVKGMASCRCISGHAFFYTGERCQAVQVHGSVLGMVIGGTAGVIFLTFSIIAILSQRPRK
The test can be described thus: Kinetic parameters of meprin α mediated proteolysis in the presence of SR24717. On the procedure: Substrate stock solutions were prepared at various concentrations in HTS assay buffer (50 mM HEPES, 0.01% Brij-35, pH 7.5). Assays were conducted by incubating a range of substrate (2–50 µM) and SR24717 concentrations (0–1000 nM) with 1.3 nM meprin α at 25 °C. Fluorescence was measured on a multimode microplate reader Synergy H1 (Biotek Instruments, Winooski, VT, USA) using λexcitation = 324 nm and λemission = 393 nm. Rates of hydrolysis were obtained from plots of fluorescence versus time, using data points from only the linear portion of the hydrolysis curve. The slope from these plots was divided by the fluorescence change corresponding to complete hydrolysis and then multiplied by the substrate concentration to obtain rates of hydrolysis in units of μM/s. Kinetic parameters were calculated by non-linear regression analysis using the GraphPad Prism 8.0 suite of programs.

Test [8] addresses T6, meprin α. The test can be described thus: Meprin α assay in a 384-well plate (fluorogenic substrate Mca-YVADAPK-K(Dnp)). Conditions: pre-incubation with meprin α for 0–3 h.

T5 sequence (P14780 94-707): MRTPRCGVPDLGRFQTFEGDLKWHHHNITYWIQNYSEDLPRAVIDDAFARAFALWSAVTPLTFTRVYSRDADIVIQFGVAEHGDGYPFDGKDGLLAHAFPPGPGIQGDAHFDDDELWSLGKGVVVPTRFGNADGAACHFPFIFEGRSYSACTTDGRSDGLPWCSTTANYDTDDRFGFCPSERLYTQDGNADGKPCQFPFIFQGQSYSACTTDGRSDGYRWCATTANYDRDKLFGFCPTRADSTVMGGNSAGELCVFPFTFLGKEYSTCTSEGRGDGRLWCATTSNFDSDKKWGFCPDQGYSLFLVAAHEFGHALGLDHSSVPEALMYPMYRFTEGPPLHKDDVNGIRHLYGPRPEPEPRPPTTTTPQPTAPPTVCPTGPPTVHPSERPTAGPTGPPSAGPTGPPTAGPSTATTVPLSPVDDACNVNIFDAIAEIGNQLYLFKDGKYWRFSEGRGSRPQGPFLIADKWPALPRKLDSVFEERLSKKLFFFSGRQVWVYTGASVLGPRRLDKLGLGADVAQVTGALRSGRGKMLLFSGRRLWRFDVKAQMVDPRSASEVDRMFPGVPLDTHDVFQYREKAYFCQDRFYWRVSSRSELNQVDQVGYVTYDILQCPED
T4 sequence (P22894 101-467): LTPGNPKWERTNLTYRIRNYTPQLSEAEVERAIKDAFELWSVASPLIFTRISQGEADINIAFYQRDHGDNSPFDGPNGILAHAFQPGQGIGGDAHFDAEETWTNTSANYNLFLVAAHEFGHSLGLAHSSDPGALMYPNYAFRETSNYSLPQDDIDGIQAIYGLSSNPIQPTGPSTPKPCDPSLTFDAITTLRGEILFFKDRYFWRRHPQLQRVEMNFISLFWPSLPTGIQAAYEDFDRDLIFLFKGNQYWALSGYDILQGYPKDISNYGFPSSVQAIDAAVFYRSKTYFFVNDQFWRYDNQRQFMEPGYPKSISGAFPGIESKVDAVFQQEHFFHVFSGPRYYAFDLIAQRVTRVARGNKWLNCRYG
Sequence of MMP3 (P08254 100-477, species assumed): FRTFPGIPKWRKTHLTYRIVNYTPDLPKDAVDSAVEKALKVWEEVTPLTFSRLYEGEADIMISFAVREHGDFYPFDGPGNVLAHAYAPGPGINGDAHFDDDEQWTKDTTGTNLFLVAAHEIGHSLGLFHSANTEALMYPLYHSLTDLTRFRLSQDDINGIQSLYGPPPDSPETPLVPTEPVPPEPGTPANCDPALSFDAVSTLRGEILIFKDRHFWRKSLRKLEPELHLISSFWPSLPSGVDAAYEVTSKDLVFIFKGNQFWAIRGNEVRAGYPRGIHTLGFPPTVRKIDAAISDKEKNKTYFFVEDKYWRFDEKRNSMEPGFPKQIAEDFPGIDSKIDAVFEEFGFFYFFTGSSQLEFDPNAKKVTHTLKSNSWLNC

With `CCCCC[C@H](CC(=O)NO)C(=O)N[C@H](C(=O)N1CCC[C@H]1CO)C(C)C` [Actinonin, actinonin, reference compound], the IC50 is 0.1 µM in test [1]; more than 1000 µM in test [2]; 0.09 µM in test [3]; 0.19 µM in test [4]; 0.1 ± 0.01 µM in test [5].

As to `COc1cc(OC)nc(SCc2nnc(SCC(=O)NO)n2-c2ccc(N(C)C)cc2)n1` [SR24717], the IC50 in test [6], in test [1], in test [2], in test [3], in test [4] and in test [5] was more than 100 µM throughout. The inhibition constant (Ki) in test [7] (global fit to the competitive model of inhibition) stood at 0.301 µM. Besides, in test [7] (varying substrate concentration), the “mode of inhibition of meprin α” value was “competitive”. Moreover, the “time dependence of inhibition: change in IC50 values” in test [8] is “no change in IC50 values”.

The IC50 is the point on the concentration scale where inhibition reaches its midpoint. A word on the Ki: it is a dissociation constant, usually derived from enzyme kinetics or from competition with a known ligand.
